In patent US8680290B2, “Isoxazoline derivatives and their use as herbicides” (Syngenta Limited, priority 2004, dated 2014):

Columns and labels:
[1] = tested on: Monocotyledonous and dicotyledonous test plants; assay: Example B1 herbicidal action, application pre-emergence (Table B1b); assay type: in vivo; settings: 250 g/ha, evaluated after 4 weeks
In short: (§1)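 Visual damage rating, 10 = plant dead and 0 = unharmed, taken at 3 weeks for post-emergence and 4 weeks for pre-emergence treatment. Application by spray of formulated aqueous solution either immediately after sowing or at 8–9 days' growth, with mono- and dicot plants kept in a greenhouse.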

[2] = tested on: Monocotyledonous and dicotyledonous test plants; assay: Example B1 herbicidal action, application post-emergence (Table B1a); assay type: in vivo; settings: 250 g/ha, evaluated after 3 weeks, scale 0-10
In short: as §1

maize [3] = assay: Example F1 post-emergent safening test on maize (Table F1, Marista 11f); assay type: in vivo; settings: post-emergent (GS 11), after 28 days
Procedure: The test plants were sown in containers under glasshouse conditions. A standard earth was used as the culture substrate. In a maize growth stage of one leaf (GS 11), the herbicides were applied both by themselves and in a mixture with safeners to the soil and leaf surface. The application was carried out with an aqueous suspension of the test substances, prepared from a 25% wettable powder (Example F3,b according to WO 97/34485) or a suspension concentrate (Example F8 according to WO 97/34485), to achieve a field equivalent of 200 l/ha. The tests were evaluated after 28 days (100%=plants completely dead; 0%=no phytotoxic action on the plants).

[4] = tested on: Monocotyledonous and dicotyledonous test plants; assay: Example B2 herbicidal action, application pre-emergence, 96-cell seed trays (Table B2b); assay type: in vivo; settings: 1000 g/ha
In short: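 Mono- and dicot plants in sterilised soil, 96-cell trays, sprayed 1 day after sowing (pre-emergence) or after 8–9 days growth (post-emergence) with aqueous 1000 mg/l active ingredient, 10% DMSO; climatic chamber 17/23° C, 13 h light. Damage scored 0–10 after 9 or 13 days.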

[5] = tested on: Monocotyledonous and dicotyledonous test plants; assay: Example B2 herbicidal action, application post-emergence, 96-cell seed trays (Table B2a); assay type: in vivo; settings: 1000 g/ha
Procedure: Monocotyledonous and dicotyledonous test plants were sown in sterilised standard soil in seed trays each having 96 cells. After one day (pre-emergence) or after 8 to 9 days cultivation (post-emergence) under controlled conditions in a climatic chamber (cultivation at 17/23° C.; 13 hours light; 50-60% humidity; after application at 19/24° C.), the plants were treated with an aqueous spray solution of 1000 mg/l of the active ingredient used (rate of application: […]; incl. 10% DMSO as solvent). The plants were grown on in the climatic chamber until the test was evaluated (10 total damage to plant, 0=no damage to plant) after 9 or 13 days.

maize [6] = assay: Example E1 pre-emergent safening test on maize (Tables E1 Marista, E2 Lorenzo); assay type: in vivo; settings: after 14 days
Procedure: The test plants were sown in seed trays under greenhouse conditions. A standard earth was used as the culture substrate. In a pre-emergent stage, the herbicides were applied both by themselves and in a mixture with safeners to the soil surface. The application was carried out with an aqueous suspension of the test substances, prepared from a 25% wettable powder (Example F3, b according to WO 97/34485) or from a suspension concentrate (Example F8 according to WO 97/34485), to achieve a field equivalent of 200 l/ha. The tests were evaluated after 14 days (100%=plants completely dead; 0%=no phytotoxic action on the plants).

Row | SMILES | herbicidal action (damage rating 0-10), Amaranthus [1] | herbicidal action (damage rating 0-10), Digitaria [1] | herbicidal action (damage rating 0-10), Panicum [1] | herbicidal action (damage rating 0-10), Setaria [1] | herbicidal action (damage rating 0-10), Sida [1] | herbicidal damage rating, Abutilon [2] | herbicidal damage rating, Amaranthus [2] | herbicidal damage rating, Digitaria [2] | herbicidal damage rating, Panicum [2] | herbicidal damage rating, Setaria [2] | herbicidal damage rating, Sida [2] | herbicidal action (damage rating 0-10), Agrostis [4] | herbicidal action (damage rating 0-10), Digitaria [4] | herbicidal action (damage rating 0-10), Poa [4] | herbicidal action (damage rating 0-10), Setaria [4] | herbicidal action (damage rating 0-10), Agrostis [5] | herbicidal action (damage rating 0-10), Amaranthus [5] | herbicidal action (damage rating 0-10), Poa [5] | herbicidal action (damage rating 0-10), Setaria [5] | further results
1 | Cn1nc(C(F)(F)F)c(C(Br)S(=O)(=O)C2=NOC(C)(C)C2)c1OCC(F)(F)F (centres unmarked) [2.10] | 10 | 10 | 10 | 10 | 8 | 6 | 8 | 6 | 7 | 5 | 4 |  |  |  |  |  |  |  |  | phytotoxic action on maize (Marista 11f) (maize [3]; herbicide alone 37.5 g/ha): 20%; phytotoxic action on maize (Marista 11f) (maize [3]; herbicide alone 75 g/ha): 50%; phytotoxic action on maize (Marista 11f) (maize [3]; herbicide alone 150 g/ha, 100%=plants completely dead): 75%
2 | CC1(C)CC(S(=O)(=O)C(Cl)c2c(F)cccc2F)=NO1 (centres unmarked) [Compound No. 1.07, 3-[chloro-(2,6-difluoro-phenyl)-methanesulfonyl]-5,5-dimethyl-4,5-dihydroisoxazole] | 8 | 10 | 10 | 10 | 7 | 5 | 3 | 5 | 7 | 7 | 2 | 10 | 10 | 10 | 10 | 8 | 7 | 8 | 7 | 
3 | Cn1nc(C(F)(F)F)c(C(Cl)S(=O)(=O)C2=NOC(C)(C)C2)c1OCC(F)(F)F (centres unmarked) [2.04] | 10 | 10 | 10 | 10 | 8 | 7 | 4 | 4 | 8 | 6 | 6 |  |  |  |  |  |  |  |  | phytotoxic action on maize (Lorenzo) (maize [6]; herbicide alone 100 g/ha): 2.5%; phytotoxic action on maize (Marista) (maize [6]; herbicide alone 100 g/ha): 10%; phytotoxic action on maize (Lorenzo) (maize [6]; herbicide alone 200 g/ha): 17.5%; phytotoxic action on maize (Marista) (maize [6]; herbicide alone 200 g/ha): 15%
4 | CC1(C)CC([S+]([O-])C(Cl)c2c(F)cccc2Cl)=NO1 (single isomer, unassigned) [1.34] | 9 | 9 | 10 | 10 | 7 | 3 | 5 | 5 | 8 | 6 | 3 |  |  |  |  | 8 | 5 | 8 | 8 | 
5 | CC1(C)CC(S(=O)(=O)C(F)(Cl)c2c(F)cccc2F)=NO1 (centres unmarked) [Compound No. 1.21, 3-[chloro-(2,6-difluoro-phenyl)-fluoro-methanesulfonyl]-5,5-dimethyl-4,5-dihydroisoxazole] | 10 | 10 | 10 | 10 | 9 | 7 |  | 7 | 9 | 7 | 5 | 10 | 10 | 10 | 9 |  |  |  |  | melting point: 129 °C
6 | CC1(C)CC(S(=O)(=O)C(F)c2c(F)cccc2F)=NO1 (centres unmarked) [1.06] | 10 | 5 | 10 | 9 | 7 |  |  |  |  |  |  | 10 | 10 | 10 | 10 | 8 | 8 | 8 | 7 | 
7 | CC1(C)CC(S(=O)(=O)C(Cl)c2c(F)cccc2Cl)=NO1 (centres unmarked) [1.32] |  |  |  |  |  |  |  |  |  |  |  |  |  |  |  | 8 | 6 | 8 | 6 | 
8 | CC(=O)C(c1c(F)cccc1F)S(=O)(=O)C1=NOC(C)(C)C1 (centres unmarked) [Compound No. 1.27, 1-(2,6-difluorophenyl)-1-(5,5-dimethyl-4,5-dihydroisoxazole-3-sulfonyl)-propan-2-one] | 7 | 4 | 9 | 5 | 2 | 4 |  | 2 | 5 | 3 | 4 | 10 | 9 | 9 | 9 |  |  |  |  | melting point: 116 °C
